Here are results for twelve compounds from ChEMBL document CHEMBL1138163, “Potent 2-[(pyrimidin-4-yl)amine}-1,3-thiazole-5-carbonitrile-based inhibitors of VEGFR-2 (KDR) kinase” (Bioorg Med Chem Lett, 2006).

In data set [1] the target is Voltage-gated inwardly rectifying potassium channel KCNH2 (Homo sapiens, UniProt Q12809). The data set can be described thus: Displacement of [3H]dofetilide from human ERG.
The next data set deals with Canis familiaris. The data set can be described thus: AUC in Beagle dog at 0.25 mg/kg, iv. In kind it is ADME, organism-based, Canis lupus familiaris, Plasma. Set-up: dose 0.25 mg/kg, route intravenous. Conditions: in vivo.
Data set [2] is described as follows: Volume of distribution in dog at 1 mg/kg, iv and 1 mg/kg, po. It is filed as ADME, organism-based, Canis lupus familiaris. Conditions: in vivo, read-out: Vdss.
The nature of data set [3]: Volume of distribution in rhesus monkey at 1 mg/kg, iv and 1 mg/kg, po. It is filed as ADME, organism-based, Macaca mulatta. Conditions: in vivo, read-out: Vdss.
Data set [4] is described as follows: Volume of distribution in Beagle dog at 0.25 mg/kg, iv. In kind it is ADME, organism-based, Canis lupus familiaris. Conditions: in vivo, read-out: Vdss. Set-up: dose 0.25 mg/kg, route intravenous.
Data set [5] is described as follows: Clearance in dog at 1 mg/kg, iv and 1 mg/kg, po. In kind it is ADME, organism-based, Canis lupus familiaris. Conditions: in vivo.
A short description of data set [6]: Volume of distribution in rat at 2 mg/kg, iv and 10 mg/kg, po. It is filed as ADME, organism-based. Conditions: in vivo, read-out: Vdss.
Data set [7] in a line: Oral bioavailability in rhesus monkey at 1 mg/kg, po. In kind it is ADME, organism-based, Macaca mulatta. Conditions: in vivo.
Data set [8] in a line: Half life in Beagle dog at 0.25 mg/kg, iv. It is filed as ADME, organism-based, Canis lupus familiaris. Set-up: dose 0.25 mg/kg, route intravenous. Conditions: in vivo.
Data set [9] in a line: Clearance in rat at 2 mg/kg, iv and 10 mg/kg, po. It is filed as ADME, organism-based. Conditions: in vivo.
Data set [10] can be described thus: Oral bioavailability in dog at 1 mg/kg, po. Conditions: in vivo. It is filed as ADME, organism-based, Canis lupus familiaris.
Data set [11] can be described thus: Clearance in rhesus monkey at 1 mg/kg, iv and 1 mg/kg, po. In kind it is ADME, organism-based, Macaca mulatta. Conditions: in vivo.
A short description of data set [12]: Oral bioavailability in rat at 10 mg/kg, po. It is filed as ADME, organism-based. Conditions: in vivo.

SMILES strings stand for the structures. Some results are limits rather than exact numbers.

Voltage-gated inwardly rectifying potassium channel KCNH2, sequence (Q12809 whole entry): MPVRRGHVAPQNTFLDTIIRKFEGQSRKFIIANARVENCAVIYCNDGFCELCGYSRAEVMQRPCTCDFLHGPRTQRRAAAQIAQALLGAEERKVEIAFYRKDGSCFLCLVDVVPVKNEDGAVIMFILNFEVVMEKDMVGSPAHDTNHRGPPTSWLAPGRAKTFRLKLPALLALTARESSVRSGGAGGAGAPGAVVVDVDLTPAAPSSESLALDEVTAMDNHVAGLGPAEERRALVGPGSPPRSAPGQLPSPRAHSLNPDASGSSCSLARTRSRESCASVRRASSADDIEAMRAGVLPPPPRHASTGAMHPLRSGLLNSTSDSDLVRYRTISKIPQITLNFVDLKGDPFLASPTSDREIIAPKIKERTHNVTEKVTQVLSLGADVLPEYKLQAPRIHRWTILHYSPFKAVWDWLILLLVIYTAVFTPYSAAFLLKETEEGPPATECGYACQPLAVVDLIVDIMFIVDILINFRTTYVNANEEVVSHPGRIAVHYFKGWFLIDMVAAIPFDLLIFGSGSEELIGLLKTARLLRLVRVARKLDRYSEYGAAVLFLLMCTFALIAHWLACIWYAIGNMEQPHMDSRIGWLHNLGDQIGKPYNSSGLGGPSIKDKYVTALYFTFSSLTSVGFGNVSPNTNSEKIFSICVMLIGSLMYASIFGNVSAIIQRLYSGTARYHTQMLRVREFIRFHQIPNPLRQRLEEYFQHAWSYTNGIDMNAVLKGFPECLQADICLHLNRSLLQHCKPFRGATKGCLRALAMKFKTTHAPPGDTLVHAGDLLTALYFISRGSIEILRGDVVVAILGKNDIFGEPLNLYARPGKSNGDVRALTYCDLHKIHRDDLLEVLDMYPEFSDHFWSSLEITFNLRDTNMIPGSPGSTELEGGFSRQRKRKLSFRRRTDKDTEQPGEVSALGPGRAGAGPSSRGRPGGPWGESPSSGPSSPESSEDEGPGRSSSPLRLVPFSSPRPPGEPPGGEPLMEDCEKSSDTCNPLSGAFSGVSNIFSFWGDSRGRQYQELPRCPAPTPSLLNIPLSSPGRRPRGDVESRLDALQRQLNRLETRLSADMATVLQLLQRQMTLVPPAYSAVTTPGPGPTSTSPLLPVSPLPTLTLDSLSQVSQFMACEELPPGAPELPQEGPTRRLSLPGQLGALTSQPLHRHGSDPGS

For `N#Cc1cnc(Nc2ccncn2)s1`, the Activity in data set [1] was found to be 2.932 µM.

In the case of `N#Cc1cnc(Nc2ccnc(N)n2)s1`, the Activity in [1] is over 10 µM.

Take `CC(=O)N1CCN(c2cc(Nc3ncc(C#N)s3)ncn2)CC1`: in [1], the Activity amounted to 3.291 µM.

`N#Cc1cnc(Nc2cc(N3CCCNCC3)ncn2)s1` came in with an Activity in data set [1] of 2.951 µM.

The compound `N#Cc1cnc(Nc2cc(N3CCCC(N)CC3)ncn2)s1` (stereo not given) yielded an Activity in [1] of 1.012 µM.

As a reminder, the AUC is concentration integrated over time. Usually bioavailability stands for dose-corrected exposure relative to a reference, in per cent. What is called half-life is the time in which the quantity being followed falls by half. For `N#Cc1cnc(Nc2cc(N3CCN(CCN4CCOCC4)CC3)ncn2)s1`, the AUC with Canis familiaris was found to be 10.2 µM·h. Also, the Vd was 2.72 L/kg in data set [2], 10.1 L/kg in [3], 2.4 L/kg in [4] and 3.32 L/kg in [6]. In addition, the clearance was determined as 4.11 mL/min/kg in data set [5], 38.7 mL/min/kg in [9] and 22.7 mL/min/kg in data set [11]. This compound also returned an Activity in data set [1] of 5 µM. Besides, the bioavailability was 54% in [7], 51% in data set [10] and over 99% in [12]. In addition, the half-life in [8] was 10.5 h.

The compound `N#Cc1cnc(Nc2cc(N3CCN(CCCN4CCOCC4)CC3)ncn2)s1` came in with an AUC in the data set with Canis familiaris of 3.08 µM·h. Moreover, the Vd in [4] was found to be 14.8 L/kg. The Activity in data set [1] came to 4.003 µM. Also, the half-life in data set [8] was 7.97 h.

As for `CN1CCN(c2cc(Nc3ncc(C#N)s3)ncn2)CC1`, the Activity in data set [1] turned out to be 0.923 µM.

`COCCN1CCN(c2cc(Nc3ncc(C#N)s3)ncn2)CC1` yielded an AUC in the data set with Canis familiaris of 4.81 µM·h. Also, the Vd in data set [4] came to 1.31 L/kg. The same compound gave a half-life in data set [8] of 2 h.

Compound `N#Cc1cnc(Nc2cc(N3CCN(CCN4CCCC4)CC3)ncn2)s1` showed an AUC with Canis familiaris of 6.07 µM·h. The Vd in data set [4] came to 14.1 L/kg. This compound also displayed an Activity in [1] of 0.383 µM. The compound also had a half-life in data set [8] of 23 h.

`N#Cc1cnc(Nc2cc(N3CCC(N)CC3)ncn2)s1` showed an exposure (AUC) in the data set on Canis familiaris of 1.91 µM·h. Besides, the Vd in data set [4] stood at 3.65 L/kg. The Activity in data set [1] is 6.643 µM. This compound had a half-life in data set [8] of 1.34 h.

`N#Cc1cnc(Nc2cc(N)ncn2)s1` gave an Activity in [1] of over 10 µM.
